One series in a line: in vivo. The following applies: mouse, po.
Another series deals with homovanillic acid. The series is described as follows: Determination of Homovanillic Acid (HVA) in rat brain. The class given is in vivo, rats. The note with it: po, 2 h, read-out: Increase in HVA; for response vs control in vivo at 50 mg/kg: dose 50 mg/kg p.o.
In series [1] the test system is rats. Briefly: "Pole Climbing" Test (conditioned / unconditioned reaction). The series is classed as in vivo. The following applies: for ED50: Rattus norvegicus, po, read-out: ED50 (blocking of the conditioned reaction); for ED50 / Quotient ED10 (blocking of the unconditioned reaction)/ED50 (blocking of the conditioned reaction): rats, p.o.; for Quotient ED10 (blocking of the unconditioned reaction)/ED50 (blocking of the conditioned reaction): larger quotient = greater selectivity of neuroleptic activity. From the text:
II. "Pole Climbing" Test This test provides information about behavior reactions of rats. Rats are trained to avoid, by climbing up a vertical pole in the test chamber, an electrical impulse-- unconditioned impulse-- released via the […] floor some seconds after an acoustic signal-- conditioned impulse. The blocking of the conditioned reaction is designated by the parameter ED50 (mg/kg. p.o.) and the blocking of the unconditioned reaction is designated by the parameter ED10 (mg/kg. p.o.). The parameter ED50 --blocking of the conditioned reaction-- provides a measure of the strength of the neuroleptic activity of the derivative under investigation.

The next series can be described thus: Catalepsy Test. The class given is in vivo, rats. The following applies: rat, in vivo, ip; rats, intraperitoneally; observed every 30 minutes for 6 hours; read-out: ED50 (dose at which 50% of the animals show catalepsy). The protocol: (§1) A cataleptic activity-- "wax rigidity", i.e., abnormally long retention of a fixed body position--in central depressant or neuroleptically active compounds is considered to be an undesirable side-effect and is produced by motor disorders. Representative dibenz[b,f]oxepin derivatives provided by this invention were administered intraperitoneally to rats. The animals are considered to be cataleptic when the homolateral extremities remain in a crossed position for at least 10 seconds. The number of cataleptic animals is noted every 30 minutes for 6 hours. The ED50 is the dose at which 50% of the animals show catalepsy.

The test system of series [2] is rats. Briefly: Catalepsy Test. The series is classed as in vivo. The following applies: in words, relative to chlorpromazine. The protocol:
as §1

Where [3] appears, read: rats killed two hours after dosing, untreated rats fixed at 100%.
Setting [4] is: in words, relative to chlorpromazine.

Here are results for nine molecules from patent US4032525A, “Dibenz[b,f]oxepin derivatives” (Hoffmann-La Roche Inc., priority 1974, dated 1977).

`Cc1ccc2c(c1)CC(N1CCN(C)CC1)c1cc(C)ccc1O2` (stereo not drawn) [A] returned an LD50 at 24 h in the series “in vivo” of 900 mg/kg. Moreover, the response vs control in vivo at 2 mg/kg in the series on homovanillic acid (dose 2 mg/kg p.o., rats killed two hours after dosing, untreated rats fixed at 100%) came out at 235%. Further, in the series on rats [1], the ED50 stood at 3.2 mg/kg and the “Quotient ED10 (blocking of the unconditioned reaction)/ED50 (blocking of the conditioned reaction)” value (shortened to “Quotient ED10”) was 3.1.

For the molecule `OCCCN1CCN(C2Cc3cc(Cl)ccc3Oc3ccccc32)CC1` (stereo not drawn) [B], the LD50 at 24 h in “in vivo” worked out at 375 mg/kg. Also, the response vs control in vivo at 3.5 mg/kg with homovanillic acid (dose 3.5 mg/kg p.o., rats killed two hours after dosing, untreated rats fixed at 100%) came to 260%.

For the molecule `O=C1OCCN1CCN1CCN(C2Cc3cc(Cl)ccc3Oc3ccc(Cl)cc32)CC1` (stereo not drawn) [C], the LD50 at 24 h in “in vivo” amounted to 900 mg/kg. In the series with homovanillic acid (dose 5 mg/kg p.o., rats killed two hours after dosing, untreated rats fixed at 100%), the response vs control in vivo at 5 mg/kg was 365%.

Consider `CN(C)CCCN1c2ccccc2Sc2ccc(Cl)cc21` [Chlorpromazine, reference compound], for which the response vs control in vivo at 20 mg/kg in the series with homovanillic acid amounted to 320%. In addition, the “Quotient ED10” value in the series with rats [1] came out at 2.5. The ED50 at 6 h in “Catalepsy Test” is 6 mg/kg.

For the molecule `Cc1ccc2c(c1)CC(N1CCN(CCN3CCOC3=O)CC1)c1cc(C)ccc1O2` (stereo not drawn) [D], the LD50 at 24 h in the series “in vivo” is 750 mg/kg. For the same molecule, in the series on homovanillic acid (dose 15 mg/kg p.o., rats killed two hours after dosing, untreated rats fixed at 100%), the response vs control in vivo at 15 mg/kg is 335%. For the same molecule, in the series with rats [1], the ED50 turned out to be 7.6 mg/kg and the “Quotient ED10” value is reported as 5.6. For the same molecule, the 50% effective dose (ED50) at 6 h in “Catalepsy Test” turned out to be 14 mg/kg. The “cataleptic side-effect compared with chlorpromazine” value in the series on rats [2] is on record as “about one half to about one eighth of the undesired cataleptic side-effect of chlorpromazine”.

`O=C1OCCN1CCN1CCN(C2Cc3cc(Cl)ccc3Oc3ccc(F)cc32)CC1` (stereo not drawn) [E] showed a median lethal dose (LD50) at 24 h in “in vivo” of 900 mg/kg. Further, in the series on homovanillic acid (dose 10 mg/kg p.o., rats killed two hours after dosing, untreated rats fixed at 100%), the response vs control in vivo at 10 mg/kg is 260%. In addition, in the series on rats [1], the median effective dose (ED50) turned out to be 3.5 mg/kg and the “Quotient ED10” value worked out at 2.8.

Molecule `Cc1ccc2c(c1)CC(N1CCN(CCN3CCOC3=O)CC1)c1cc(F)ccc1O2` (stereo not drawn) [F] had an LD50 at 24 h in the series “in vivo” of 450 mg/kg. In addition, the response vs control in vivo at 50 mg/kg in the series with homovanillic acid (setting [3]) came to 265%. Moreover, in the series with rats [1], the ED50 came out at 7 mg/kg and the “Quotient ED10” value was found to be 5.1. Besides, the ED50 at 6 h in “Catalepsy Test” came to 30 mg/kg. The “cataleptic side-effect compared with chlorpromazine” value with rats [2] is reported as “about one half to about one eighth of the undesired cataleptic side-effect of chlorpromazine”.

On to `O=C1OCCN1CCN1CCN(C2Cc3cc(Cl)ccc3Oc3ccccc32)CC1` (stereo not drawn) [G], for which the LD50 at 24 h in the series “in vivo” was found to be 450 mg/kg. In addition, the response vs control in vivo at 50 mg/kg with homovanillic acid (setting [3]) worked out at 225%. For the same molecule, in the series on rats [1], the ED50 was 15.5 mg/kg and the “Quotient ED10” value was found to be 3.5. For the same molecule, the “neuroleptic strength of action compared with chlorpromazine” value in the series with rats [1] (setting [4]) is recorded as “somewhat lower than that of chlorpromazine”. Moreover, the ED50 at 6 h in “Catalepsy Test” worked out at 50 mg/kg. Further, the “cataleptic side-effect compared with chlorpromazine” value in the series on rats [2] is on record as “about one half to about one eighth of the undesired cataleptic side-effect of chlorpromazine”.

As for `N#CCCN1CCN(C2Cc3cc(Cl)ccc3Oc3ccccc32)CC1` (stereo not drawn) [H], the median lethal dose (LD50) at 24 h in the series “in vivo” is 1500 mg/kg. Also, the response vs control in vivo at 50 mg/kg with homovanillic acid (setting [3]) came to 275%. Moreover, in the series on rats [1], the ED50 came out at 14 mg/kg and the “Quotient ED10” value is recorded as over 21. Further, in the series with rats [1] (setting [4]), the “neuroleptic strength of action compared with chlorpromazine” value is reported as “somewhat lower than that of chlorpromazine” and the “quality (selectivity) of the neuroleptic activity compared with chlorpromazine” value was “this superiority is particularly evident”. In the series “Catalepsy Test”, the median effective dose (ED50) at 6 h was over 30 mg/kg. Besides, the “cataleptic side-effect compared with chlorpromazine” value in the series with rats [2] was “less than one fifth of the undesired cataleptic side-effect of chlorpromazine”.
